Results as given in patent US10294202B2, “Pyrrolidinones as herbicides” (FMC Corporation, priority 2013, dated 2019).

Assays:
[1] = tested on: barnyardgrass; assay: Test B flooded paddy test; format: in vivo, Echinochloa crus-galli; details: Flood, scale of 0 to 100 where 0 is no effect and 100 is complete control
Outline: (§1)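 Visual ratings from 0, meaning no effect, up to 100, meaning complete control, were made by comparison with untreated controls 13 to 15 days after treatment. Test compounds went straight into floodwater standing 3 cm over the soil of pots holding 2-leaf seedlings.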

[2] = tested on: ducksalad; assay: Test B flooded paddy test; format: in vivo, Heteranthera limosa; details: Flood, scale of 0 to 100 where 0 is no effect and 100 is complete control
Outline: as §1

[3] = tested on: giant foxtail; assay: Test A pre-/postemergence herbicide test; format: in vivo, Setaria faberii
Outline: (§2)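 Approximately 10 days after treatment in the greenhouse, plants were compared with untreated controls and given a 0–100 visual injury rating. Applications: preemergence directed soil spray; postemergence on 2–10 cm plants at the one- to two-leaf stage.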

[4] = tested on: kochia; assay: Test A pre-/postemergence herbicide test; format: in vivo, Kochia scoparia
Outline: as §2

[5] = tested on: pigweed; assay: Test A pre-/postemergence herbicide test; format: in vivo, Amaranthus retroflexus
Outline: as §2

[6] = tested on: corn; assay: Test A pre-/postemergence herbicide test; format: in vivo, Zea mays; details: Postemergence
Outline: as §2

[7] = tested on: ragweed; assay: Test A pre-/postemergence herbicide test; format: in vivo, Ambrosia elatior
Outline: as §2

[8] = tested on: rice; assay: Test B flooded paddy test; format: in vivo, Oryza sativa; details: Flood, scale of 0 to 100 where 0 is no effect and 100 is complete control
Outline: as §1

[9] = tested on: wheat; assay: Test A pre-/postemergence herbicide test; format: in vivo, Triticum aestivum; details: Postemergence
Outline: as §2

[10] = tested on: sedge, umbrella; assay: Test B flooded paddy test; format: in vivo, Cyperus difformis; details: Flood, scale of 0 to 100 where 0 is no effect and 100 is complete control
Outline: as §1

[11] = tested on: galium; assay: Test A postemergence herbicide test; format: in vivo, Galium aparine
Outline: (§3)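 Blackgrass and galium grown in pots of loam soil–sand blend, treated postemergence at 2–10 cm height, one- to two-leaf stage. Plants kept in greenhouse ~10 days, then visually rated for injury against untreated controls on a 0–100 scale (0 no effect, 100 complete control).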

[12] = tested on: blackgrass; assay: Test A postemergence herbicide test; format: in vivo, Alopecurus myosuroides
Outline: as §3

[13] = tested on: ryegrass, Italian; assay: Test A pre-/postemergence herbicide test; format: in vivo, Lolium multiflorum
Outline: as §2

[14] = tested on: barnyardgrass; assay: Test A pre-/postemergence herbicide test; format: in vivo, Echinochloa crus-galli
Outline: as §2

[15] = 125 g ai/ha, visual rating, 0 to 100 scale, 0 no effect, 100 complete control, approximately 10 days, preemergence
[16] = Postemergence, 125 g ai/ha, 0 to 100 scale, 0 is no effect, 100 is complete control
[17] = preemergence, 500 g ai/ha, 0 to 100 scale, 0 is no effect and 100 is complete control
[18] = 125 g ai/ha, 0 to 100 scale, 0 is no effect, 100 is complete control
[19] = Postemergence, 500 g ai/ha, 0 to 100 scale (0 no effect, 100 complete control)
[20] = 500 g ai/ha, 0 to 100 scale (0 no effect, 100 complete control)
[21] = preemergence, 500 g ai/ha, 0 to 100 scale
[22] = preemergence, 500 g ai/ha, 0 to 100 scale (0 no effect, 100 complete control)

| Structure (SMILES) | Plant response rating, Foxtail, Giant [3, 15] | Plant response rating, Foxtail, Giant [3, 16] | Plant response rating, Kochia [4, 15] | Plant response rating, Kochia [4, 16] | Plant response rating, Kochia [4, 17] | Plant response rating, Pigweed [5, 15] | Plant response rating, Pigweed [5, 16] | Plant response rating, Pigweed [5, 17] | Plant response rating, Corn [6, 18] | Plant response rating, Ragweed [7, 15] | Plant response rating, Ragweed [7, 16] | Plant response rating, Ragweed [7, 17] | Plant response rating, Wheat [9, 18] | Plant response rating, Galium [11, 18] | Plant response rating, Blackgrass [12, 18] | Plant response rating, Ryegrass, Italian [13, 15] | Plant response rating, Ryegrass, Italian [13, 16] | Plant response rating, Ryegrass, Italian [13, 17] | Plant response rating, Barnyardgrass [14, 15] | Plant response rating, Barnyardgrass [14, 16] | further results |
| --- | --- | --- | --- | --- | --- | --- | --- | --- | --- | --- | --- | --- | --- | --- | --- | --- | --- | --- | --- | --- | --- |
| Cc1ccccc1NC(=O)C1C(=O)NCC1c1cccc(OC(F)F)c1 (stereo not drawn) [Compound 230] | 90 | 70 | 0 | 0 | 30 | 0 | 0 | 20 | 20 | 0 | 0 | 20 | 20 | 20 | 20 | 0 | 0 | 30 | 30 | 60 | Plant response rating, Barnyardgrass ([1]; 500 g ai/ha): 60; Plant response rating, Ducksalad ([2]; 500 g ai/ha): 75; Foxtail, Giant plant response rating (0 to 100 scale, 0 is no effect, 100 is complete control) ([3]; Postemergence, 500 g ai/ha): 90; Plant response rating, Foxtail, Giant [3, 17]: 90; Kochia plant response rating (0 to 100 scale, 0 is no effect, 100 is complete control) ([4]; Postemergence, 500 g ai/ha): 40; Pigweed plant response rating (0 to 100 scale, 0 is no effect, 100 is complete control) ([5]; Postemergence, 500 g ai/ha): 0; Corn plant response rating (0 to 100 scale, 0 is no effect, 100 is complete control) ([6]; 500 g ai/ha): 40; Ragweed plant response rating (0 to 100 scale, 0 is no effect, 100 is complete control) ([7]; Postemergence, 500 g ai/ha): 30; Plant response rating, Rice ([8]; 500 g ai/ha): 0; Wheat plant response rating (0 to 100 scale, 0 is no effect, 100 is complete control) ([9]; 500 g ai/ha): 20; Plant response rating, Sedge, Umbrella ([10]; 500 g ai/ha): 0; Galium plant response rating (0 to 100 scale, 0 is no effect, 100 is complete control) ([11]; 500 g ai/ha): 50; Blackgrass plant response rating (0 to 100 scale, 0 is no effect, 100 is complete control) ([12]; 500 g ai/ha): 50; Ryegrass, Italian plant response rating (0 to 100 scale, 0 is no effect, 100 is complete control) ([13]; Postemergence, 500 g ai/ha): 20; Barnyardgrass plant response rating (0 to 100 scale, 0 is no effect, 100 is complete control) ([14]; Postemergence, 500 g ai/ha): 90; Plant response rating, Barnyardgrass [14, 17]: 90 |
| COc1ccc(C2CNC(=O)C2C(=O)Nc2ccccc2C(F)(F)F)cc1C(F)(F)F (stereo not drawn) [Compound 240] | 70 | 40 | 0 | 0 | 0 | 0 | 0 | 0 | 0 | 0 | 0 | 0 | 0 | 0 | 0 | 0 | 0 | 0 | 20 | 30 | Plant response rating, Barnyardgrass ([1]; 1000 g ai/ha): 70; Plant response rating, Ducksalad ([2]; 1000 g ai/ha): 85; Plant response rating, Foxtail, Giant [3, 19]: 80; Plant response rating, Foxtail, Giant [3, 17]: 90; Plant response rating, Kochia [4, 19]: 0; Plant response rating, Pigweed [5, 19]: 0; Plant response rating, Corn [6, 20]: 20; Plant response rating, Ragweed [7, 19]: 0; Plant response rating, Rice ([8]; 1000 g ai/ha): 0; Plant response rating, Wheat [9, 20]: 20; Plant response rating, Sedge, Umbrella ([10]; 1000 g ai/ha): 0; Plant response rating, Galium [11, 20]: 0; Plant response rating, Blackgrass [12, 20]: 0; Plant response rating, Ryegrass, Italian [13, 19]: 0; Plant response rating, Barnyardgrass [14, 19]: 90; Plant response rating, Barnyardgrass [14, 17]: 50 |
| O=C1NCC(c2ccc3c(c2)OC(F)(F)O3)C1C(=O)Nc1ccccc1F (racemic) [Compound 161] | 90 | 90 | 20 | 20 | 60 | 20 | 20 | 70 | 10 | 20 | 0 | 70 | 20 | 50 | 50 | 0 | 20 | 50 | 90 | 90 | Plant response rating, Barnyardgrass ([1]; 500 g ai/ha): 65; Plant response rating, Ducksalad ([2]; 500 g ai/ha): 100; Foxtail, Giant plant response rating (0 to 100 scale, 0 is no effect, 100 is complete control) ([3]; Postemergence, 500 g ai/ha): 90; Plant response rating, Foxtail, Giant [3, 21]: 90; Kochia plant response rating (0 to 100 scale, 0 is no effect, 100 is complete control) ([4]; Postemergence, 500 g ai/ha): 60; Pigweed plant response rating (0 to 100 scale, 0 is no effect, 100 is complete control) ([5]; Postemergence, 500 g ai/ha): 60; Corn plant response rating (0 to 100 scale, 0 is no effect, 100 is complete control) ([6]; 500 g ai/ha): 60; Ragweed plant response rating (0 to 100 scale, 0 is no effect, 100 is complete control) ([7]; Postemergence, 500 g ai/ha): 30; Plant response rating, Rice ([8]; 500 g ai/ha): 10; Wheat plant response rating (0 to 100 scale, 0 is no effect, 100 is complete control) ([9]; 500 g ai/ha): 40; Plant response rating, Sedge, Umbrella ([10]; 500 g ai/ha): 0; Galium plant response rating (0 to 100 scale, 0 is no effect, 100 is complete control) ([11]; 500 g ai/ha): 60; Blackgrass plant response rating (0 to 100 scale, 0 is no effect, 100 is complete control) ([12]; 500 g ai/ha): 50; Ryegrass, Italian plant response rating (0 to 100 scale, 0 is no effect, 100 is complete control) ([13]; Postemergence, 500 g ai/ha): 50; Barnyardgrass plant response rating (0 to 100 scale, 0 is no effect, 100 is complete control) ([14]; Postemergence, 500 g ai/ha): 90; Plant response rating, Barnyardgrass [14, 22]: 90 |
| CCc1cccc(C2CNC(=O)C2C(=O)Nc2ccc(F)c(F)c2F)c1 (racemic) [Compound 171] | 90 | 60 | 60 | 0 | 70 | 20 | 0 | 40 | 20 | 0 | 0 | 30 | 0 | 50 | 50 | 0 | 20 | 30 | 90 | 90 | Plant response rating, Barnyardgrass ([1]; 500 g ai/ha): 70; Plant response rating, Ducksalad ([2]; 500 g ai/ha): 100; Foxtail, Giant plant response rating (0 to 100 scale, 0 is no effect, 100 is complete control) ([3]; Postemergence, 500 g ai/ha): 80; Plant response rating, Foxtail, Giant [3, 21]: 90; Kochia plant response rating (0 to 100 scale, 0 is no effect, 100 is complete control) ([4]; Postemergence, 500 g ai/ha): 30; Pigweed plant response rating (0 to 100 scale, 0 is no effect, 100 is complete control) ([5]; Postemergence, 500 g ai/ha): 40; Corn plant response rating (0 to 100 scale, 0 is no effect, 100 is complete control) ([6]; 500 g ai/ha): 70; Ragweed plant response rating (0 to 100 scale, 0 is no effect, 100 is complete control) ([7]; Postemergence, 500 g ai/ha): 30; Plant response rating, Rice ([8]; 500 g ai/ha): 0; Wheat plant response rating (0 to 100 scale, 0 is no effect, 100 is complete control) ([9]; 500 g ai/ha): 50; Plant response rating, Sedge, Umbrella ([10]; 500 g ai/ha): 0; Galium plant response rating (0 to 100 scale, 0 is no effect, 100 is complete control) ([11]; 500 g ai/ha): 70; Blackgrass plant response rating (0 to 100 scale, 0 is no effect, 100 is complete control) ([12]; 500 g ai/ha): 60; Ryegrass, Italian plant response rating (0 to 100 scale, 0 is no effect, 100 is complete control) ([13]; Postemergence, 500 g ai/ha): 30; Barnyardgrass plant response rating (0 to 100 scale, 0 is no effect, 100 is complete control) ([14]; Postemergence, 500 g ai/ha): 90; Plant response rating, Barnyardgrass [14, 22]: 90 |
